The target in the experiment is T1, full-length beta-Catenin (Uniprot ID P35222) (Homo sapiens, UniProt P35222).
T1 construct: 10 nM full-length beta-Catenin (Uniprot ID P35222)
T1 sequence (P35222 1-781): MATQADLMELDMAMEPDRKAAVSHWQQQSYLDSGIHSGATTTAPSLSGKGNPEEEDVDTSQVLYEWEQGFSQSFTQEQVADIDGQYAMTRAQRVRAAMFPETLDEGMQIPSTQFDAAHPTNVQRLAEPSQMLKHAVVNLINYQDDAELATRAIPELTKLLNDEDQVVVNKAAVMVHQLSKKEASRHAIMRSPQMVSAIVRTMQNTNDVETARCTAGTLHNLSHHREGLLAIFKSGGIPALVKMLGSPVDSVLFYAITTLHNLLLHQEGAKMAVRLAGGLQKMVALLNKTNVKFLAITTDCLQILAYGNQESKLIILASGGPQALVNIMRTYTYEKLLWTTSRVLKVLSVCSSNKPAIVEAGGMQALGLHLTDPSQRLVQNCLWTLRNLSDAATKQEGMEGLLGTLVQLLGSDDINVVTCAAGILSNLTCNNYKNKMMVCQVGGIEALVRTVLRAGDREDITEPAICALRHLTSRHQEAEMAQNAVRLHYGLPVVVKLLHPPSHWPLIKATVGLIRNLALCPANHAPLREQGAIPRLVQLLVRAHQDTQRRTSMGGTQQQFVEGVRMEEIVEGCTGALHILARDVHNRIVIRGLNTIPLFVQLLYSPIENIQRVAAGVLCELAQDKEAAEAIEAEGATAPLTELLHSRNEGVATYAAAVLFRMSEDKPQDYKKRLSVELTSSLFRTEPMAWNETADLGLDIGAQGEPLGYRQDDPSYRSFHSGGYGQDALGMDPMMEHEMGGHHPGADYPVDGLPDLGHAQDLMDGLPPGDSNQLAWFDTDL
Description: Fluorescence polarization IC50 (beta-catenin / 5FAM-TCF4 10-53 competition). Type of experiment: binding. The following applies: fluorescence polarization; read-out: beta-Catenin FP IC50.

Our source for the IC50 values is patent US20240116985A1, “STAPLED PEPTIDES AND METHODS THEREOF” (priority 2020, published 2024).

Structures are written as SMILES.

As a reminder, the IC50 is the concentration at which inhibition is half-maximal.

As for `CC(=O)N1CCC[C@]12CC=CCCCC1(CCCC=CCCCOC(=O)N3CC[C@@](C(=O)N[C@@H](Cc4ccccc4)C(=O)N[C@@H](Cc4csc5ccccc45)C(=O)N[C@@H](CCC(N)=O)C(N)=O)(C3)NC(=O)[C@H](CC(C)C)NC(=O)[C@H](Cc3ccccc3)NC(=O)[C@H](C)NC(=O)[C@H](C)NC(=O)[C@H](CCC(N)=O)NC(=O)[C@H](CC(=O)O)NC1=O)NC(=O)[C@H](CC(C)(C)C)NC(=O)[C@H](CCO)NC2=O` (stereo partly drawn) [I-2443, Ac-PL3-Hse-Npg-B5-Asp-Gln-Ala-Ala-Phe-Leu-PyrS2-Phe-BztA-Gln-NH2], the IC50 is 6670 nM.
`CCCc1cn(CCCC[C@@H](NC(=O)[C@H](CO)NC(=O)[C@H](Cc2csc3ccccc23)NC(=O)[C@H](Cc2ccccc2C(F)(F)F)NC(=O)[C@]23CCN(C2)C(=O)OCCCC=CCCCC2(CCCC=CC[C@]4(CCCN4C(C)=O)C(=O)N[C@@H](CC(=O)O)C(=O)N[C@@H](CC(C)(C)C)C(=O)N2)C(=O)N[C@@H](CC(=O)O)C(=O)N[C@@H](Cc2cccc(C(=O)O)c2)C(=O)N[C@@H](C)C(=O)N[C@@H](C)C(=O)N[C@@H](Cc2ccccc2)C(=O)N[C@@H](CC(C)C)C(=O)N3)C(N)=O)nn1` (stereo partly drawn) [I-2444, Ac-PL3-Asp-Npg-B5-Asp-3COOHF-Ala-Ala-Phe-Leu-PyrS2-2F3MeF-BztA-Ser-[3C]TriAzdLys-NH2]: the 50% inhibitory concentration (IC50) amounted to 121 nM.
As to `CC(=O)N1CCC[C@]12CC=CCCCC1(CCCC=CCCCOC(=O)N3CC[C@@](C(=O)N[C@@H](Cc4ccccc4)C(=O)N[C@@H](Cc4csc5ccccc45)C(=O)N[C@@H](CCC(N)=O)C(N)=O)(C3)NC(=O)[C@H](CC(C)C)NC(=O)[C@H](Cc3ccccc3)NC(=O)[C@H](C)NC(=O)[C@H](CCO)NC(=O)[C@H]([C@@H](C)O)NC(=O)[C@H](CC(=O)O)NC1=O)NC(=O)[C@H](CC1CCCCC1)NC(=O)[C@H](CC(N)=O)NC2=O` (stereo partly drawn) [I-2447, Ac-PL3-Asn-Cha-B5-Asp-Thr-Hse-Ala-Phe-Leu-PyrS2-Phe-BztA-Gln-NH2], the IC50 came to 3250 nM.
Take `CC(=O)N1CCC[C@]12CCCCCCC1(CCCCCCCCOC(=O)N3CC[C@@](C(=O)N[C@@H](Cc4ccsc4)C(=O)N[C@@H](Cc4csc5ccccc45)C(=O)N[C@@H](CCC(N)=O)C(N)=O)(C3)NC(=O)[C@H](CC(C)C)NC(=O)[C@H](Cc3ccccc3)NC(=O)[C@H](C)NC(=O)[C@H](CCO)NC(=O)[C@H](CCC(N)=O)NC(=O)[C@H](CC(=O)O)NC1=O)NC(=O)[C@H](CC1CCCCC1)NC(=O)[C@H](CC(N)=O)NC2=O` (stereo partly drawn) [I-2451, Ac-PL3-Asn-Cha-B5-Asp-Gln-Hse-Ala-Phe-Leu-PyrS2-3Thi-BztA-Gln-NH2]: the half-inhibitory concentration (IC50) came to 4860 nM.
For `CC(=O)N1CCC[C@]12CCCCCCC1(CCCCCCCCOC(=O)N3CC[C@@](C(=O)N[C@@H](Cc4ccsc4)C(=O)N[C@@H](Cc4csc5ccccc45)C(=O)N[C@@H](CCC(N)=O)C(N)=O)(C3)NC(=O)[C@H](CC(C)C)NC(=O)[C@H](Cc3ccccc3)NC(=O)[C@H](C)NC(=O)[C@H](CCCCNC(C)C)NC(=O)[C@H](CCC(N)=O)NC(=O)[C@H](CC(=O)O)NC1=O)NC(=O)[C@H](CC1CCCCC1)NC(=O)[C@H](CC(N)=O)NC2=O` (stereo partly drawn) [I-2452, Ac-PL3-Asn-Cha-B5-Asp-Gln-iPrLys-Ala-Phe-Leu-PyrS2-3Thi-BztA-Gln-NH2], the concentration for half-maximal inhibition (IC50) worked out at 7200 nM.
`CC(=O)N1CCC[C@]12CC=CCCCC1(CCCC=CCCCOC(=O)N3CC[C@@](C(=O)N[C@@H](Cc4ccccc4C(F)(F)F)C(=O)N[C@@H](Cc4ccc5ccccc5c4)C(=O)N[C@@H](C)C(N)=O)(C3)NC(=O)[C@H](CC(C)C)NC(=O)[C@H](Cc3ccccc3)NC(=O)[C@H](C)NC(=O)[C@H](CCC(N)=O)NC(=O)[C@H](Cc3cccc(C(=O)O)c3)NC(=O)[C@H](CC(=O)O)NC1=O)NC(=O)[C@H](CC(C)(C)C)NC(=O)[C@H](CC(=O)O)NC2=O` (stereo partly drawn) [I-2461, Ac-PL3-Asp-Npg-B5-Asp-3COOHF-Gln-Ala-Phe-Leu-PyrS2-2F3MeF-2NapA-Ala-NH2]: the concentration for half-maximal inhibition (IC50) amounted to 75 nM.
As to `CC(=O)N1CCC[C@]12CC=CCCCC1(CCCC=CCCCOC(=O)N3CC[C@@](C(=O)N[C@@H](Cc4ccccc4C(F)(F)F)C(=O)N[C@@H](Cc4csc5ccccc45)C(=O)N[C@@H](CCC(=O)N(C)C)C(=O)N[C@@H](C)C(N)=O)(C3)NC(=O)[C@H](CC(C)C)NC(=O)[C@H](Cc3ccccc3)NC(=O)[C@H](C)NC(=O)[C@H](C)NC(=O)[C@H](Cc3cccc(C(=O)O)c3)NC(=O)[C@H](CC(=O)O)NC1=O)NC(=O)[C@H](CC(C)(C)C)NC(=O)[C@H](CC(=O)O)NC2=O` (stereo partly drawn) [I-2466, Ac-PL3-Asp-Npg-B5-Asp-3COOHF-Ala-Ala-Phe-Leu-PyrS2-2F3MeF-BztA-Me2Gln-Ala-NH2], the IC50 stood at 15 nM.
In the case of `CCNC(=O)CC[C@H](NC(=O)[C@H](Cc1csc2ccccc12)NC(=O)[C@H](Cc1ccccc1C(F)(F)F)NC(=O)[C@]12CCN(C1)C(=O)OCCCC=CCCCC1(CCCC=CC[C@]3(CCCN3C(C)=O)C(=O)N[C@@H](CC(=O)O)C(=O)N[C@@H](CC(C)(C)C)C(=O)N1)C(=O)N[C@@H](CC(=O)O)C(=O)N[C@@H](Cc1cccc(C(=O)O)c1)C(=O)N[C@@H](C)C(=O)N[C@@H](C)C(=O)N[C@@H](Cc1ccccc1)C(=O)N[C@@H](CC(C)C)C(=O)N2)C(=O)N[C@@H](C)C(N)=O` (stereo partly drawn) [I-2470, Ac-PL3-Asp-Npg-B5-Asp-3COOHF-Ala-Ala-Phe-Leu-PyrS2-2F3MeF-BztA-NHEt]GlnR-Ala-NH2], the IC50 came to 24 nM.
Take `CCNC(=O)CC[C@H](NC(=O)[C@H](Cc1csc2ccccc12)NC(=O)[C@H](Cc1ccsc1)NC(=O)[C@]12CCN(C1)C(=O)OCCCC=CCCCC1(CCCC=CC[C@]3(CCCN3C(C)=O)C(=O)N[C@@H](CC(=O)O)C(=O)N[C@@H](CC(C)(C)C)C(=O)N1)C(=O)N[C@@H](CC(=O)O)C(=O)N[C@@H](Cc1cccc(C(=O)O)c1)C(=O)NC(C)(C)C(=O)N[C@@H](C)C(=O)N[C@@H](Cc1ccccc1)C(=O)N[C@@H](CC)C(=O)N2)C(=O)N[C@@H](C)C(N)=O` (stereo partly drawn) [I-2473, Ac-PL3-Asp-Npg-B5-Asp-3COOHF-Aib-Ala-Phe-Abu-PyrS2-3Thi-BztA-[NHEt]GlnR-Ala-NH2]: the IC50 was 7 nM.
Consider `CC[C@@H]1NC(=O)[C@H](Cc2ccccc2)NC(=O)[C@H](C)NC(=O)C(C)(C)NC(=O)[C@H](Cc2cccc(C(=O)O)c2)NC(=O)[C@H](CC(=O)O)NC(=O)C2(CCCC=CCCCOC(=O)N3CC[C@@](C(=O)N[C@@H](Cc4ccsc4)C(=O)N[C@@H](Cc4csc5ccccc45)C(=O)N[C@@H](CCC(=O)N4CCCCC4)C(=O)N[C@@H](C)C(N)=O)(C3)NC1=O)CCCC=CC[C@]1(CCCN1C(C)=O)C(=O)N[C@@H](CC(=O)O)C(=O)N[C@@H](CC(C)(C)C)C(=O)N2` (stereo partly drawn) [I-2476, Ac-PL3-Asp-Npg-B5-Asp-3COOHF-Aib-Ala-Phe-Abu-PyrS2-3Thi-BztA-[Pip]GlnR-Ala-NH2], for which the IC50 is 7 nM.
`CC(=O)N1CCC[C@]12CC=CCCCC1(CCCC=CCCCOC(=O)N3CC[C@@](C(=O)N[C@@H](Cc4ccsc4)C(=O)N[C@@H](Cc4csc5ccccc45)C(=O)N[C@@H](CC(C)C)C(N)=O)(C3)NC(=O)[C@H](CC(N)=O)NC(=O)[C@H](Cc3ccccc3)NC(=O)[C@H](C)NC(=O)C(C)(C)NC(=O)[C@H]([C@@H](C)O)NC(=O)[C@H](CC(N)=O)NC1=O)NC(=O)[C@H](CC(C)(C)C)NC(=O)[C@H](CC(=O)O)NC2=O` (stereo partly drawn) [I-2479, Ac-PL3-Asp-Npg-B5-Asn-Thr-Aib-Ala-Phe-Asn-PyrS2-3Thi-BztA-Leu-NH2]: the IC50 amounted to 627 nM.
With `CC(=O)N1CCC[C@]12CC=CCCCC1(CCCC=CCCCOC(=O)N3CC[C@@](C(=O)N[C@@H](Cc4ccsc4)C(=O)N[C@@H](Cc4csc5ccccc45)C(=O)N[C@H](C(N)=O)C(C)C)(C3)NC(=O)[C@H](CC(N)=O)NC(=O)[C@H](Cc3ccccc3)NC(=O)[C@H](C)NC(=O)C(C)(C)NC(=O)[C@H]([C@@H](C)O)NC(=O)[C@H](CC(N)=O)NC1=O)NC(=O)[C@H](CC(C)(C)C)NC(=O)[C@H](CC(=O)O)NC2=O` (stereo partly drawn) [I-2480, Ac-PL3-Asp-Npg-B5-Asn-Thr-Aib-Ala-Phe-Asn-PyrS2-3Thi-BztA-Val-NH2], the half-inhibitory concentration (IC50) came out at 475 nM.
`CC(=O)N1CCC[C@]12CC=CCCCC1(CCCC=CCCCOC(=O)N3CC[C@@](C(=O)N[C@@H](Cc4ccsc4)C(=O)N[C@@H](Cc4csc5ccccc45)C(=O)N[C@@H](Cc4c[nH]c5ccccc45)C(N)=O)(C3)NC(=O)[C@H](CC(N)=O)NC(=O)[C@H](Cc3ccccc3)NC(=O)[C@H](C)NC(=O)C(C)(C)NC(=O)[C@H]([C@@H](C)O)NC(=O)[C@H](CC(N)=O)NC1=O)NC(=O)[C@H](CC(C)(C)C)NC(=O)[C@H](CC(=O)O)NC2=O` (stereo partly drawn) [I-2481, Ac-PL3-Asp-Npg-B5-Asn-Thr-Aib-Ala-Phe-Asn-PyrS2-3Thi-BztA-Trp-NH2]: the half-maximal inhibitory concentration (IC50) worked out at 754 nM.
For the compound `CC(=O)N1CCC[C@]12CC=CCCCC1(CCCC=CCCCOC(=O)N3CC[C@@](C(=O)N[C@@H](Cc4ccsc4)C(=O)N[C@@H](Cc4csc5ccccc45)C(=O)N[C@@H](CCC(N)=O)C(N)=O)(C3)NC(=O)[C@H](CC(C)C)NC(=O)[C@H](Cc3ccccc3)NC(=O)[C@H](C)NC(=O)[C@H](C)NC(=O)[C@H](Cn3cc(CC4(C(=O)O)CC4)nn3)NC(=O)[C@H](CC(=O)O)NC1=O)NC(=O)[C@H](CC(C)(C)C)NC(=O)[C@H](CC(=O)O)NC2=O` (stereo partly drawn) [I-2482, Ac-PL3-Asp-Npg-B5-Asp-[CH2CCpCO2H]TriAzDap-Ala-Ala-Phe-Leu-PyrS2-3Thi-BztA-Gln-NH2], the IC50 amounted to 5 nM.
